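Where inhibition never reached the appropriate level, the endpoint shown equals the highest concentration tested. Otherwise, values were interpolated linearly from a five-concentration, 48-hour dose response in 96-well plates. At the GI50, growth is halved.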 Activity calls are given as the source filed them. Cut-off read from the data, not from the text of the source: active = GI50 up to about 1.1 µM and inactive = higher.
Columns and labels:
Test in all cases: inhibition of tumour cell growth, NCI panel, 48 h
UACC-257 = system: UACC-257
Hs-578T = system: Hs-578T
786-0 = system: 786-0
T47D = system: T47D
OVCAR-5 = system: OVCAR-5
PC-3 = system: PC-3
SF-539 = system: SF-539
SK-OV-3 = system: SK-OV-3
NCI-H226 = system: NCI-H226
OVCAR-4 = system: OVCAR-4
TK-10 = system: TK-10
M14 = system: M14
A549 = system: A549
UACC-62 = system: UACC-62
SNB-19 = system: SNB-19
KM12 = system: KM12
DU-145 = system: DU-145
HL-60 = system: HL-60
HT-29 = system: HT-29
HCT-116 = system: HCT-116
CCRF-CEM = system: CCRF-CEM
K562 = system: K562
HCC 2998 = system: HCC 2998
SF-295 = system: SF-295
OVCAR-8 = system: OVCAR-8
NCI/ADR-RES = system: NCI/ADR-RES
NCI-H23 = system: NCI-H23
A498 = system: A498
COLO 205 = system: COLO 205
ACHN = system: ACHN
SN12C = system: SN12C
NCI-H460 = system: NCI-H460
HOP-92 = system: HOP-92
UO-31 = system: UO-31
IGROV-1 = system: IGROV-1
EKVX = system: EKVX
Malme-3M = system: Malme-3M
BT-549 = system: BT-549
LOX IMVI = system: LOX IMVI
SF-268 = system: SF-268
NCI-H522 = system: NCI-H522
CAKI-1 = system: CAKI-1
MDA-N = system: MDA-N
MDA-MB-435 = system: MDA-MB-435
OVCAR-3 = system: OVCAR-3
SK-MEL-28 = system: SK-MEL-28
HOP-62 = system: HOP-62
MDA-MB-231 = system: MDA-MB-231
HCT-15 = system: HCT-15
SK-MEL-5 = system: SK-MEL-5
MCF7 = system: MCF7
SR = system: SR
SW-620 = system: SW-620
U-251 = system: U-251
MOLT-4 = system: MOLT-4
RPMI-8226 = system: RPMI-8226
SK-MEL-2 = system: SK-MEL-2
RXF 393 = system: RXF 393

Structure (SMILES): O=C1C=C(N2CCN(c3ncccn3)CC2)C(=O)c2c(O)ccc(O)c21
- GI50 (UACC-257): > 100 µM (inactive)
- GI50 (Hs-578T): 27.6 µM (inactive)
- GI50 (786-0): 53 µM (inactive)
- GI50 (T47D): > 100 µM (inactive)
- GI50 (OVCAR-5): > 100 µM (inactive)
- GI50 (PC-3): > 100 µM (inactive)
- GI50 (SF-539): 21.6 µM (inactive)
- GI50 (SK-OV-3): > 100 µM (inactive)
- GI50 (NCI-H226): > 100 µM (inactive)
- GI50 (OVCAR-4): > 100 µM (inactive)
- GI50 (TK-10): > 100 µM (inactive)
- GI50 (M14): > 100 µM (inactive)
- GI50 (A549): > 100 µM (inactive)
- GI50 (UACC-62): 16.2 µM (inactive)
- GI50 (SNB-19): > 100 µM (inactive)
- GI50 (KM12): > 100 µM (inactive)
- GI50 (DU-145): > 100 µM (inactive)
- GI50 (HL-60): > 100 µM (inactive)
- GI50 (HT-29): > 100 µM (inactive)
- GI50 (HCT-116): 73.1 µM (inactive)
- GI50 (CCRF-CEM): > 100 µM (inactive)
- GI50 (K562): > 100 µM (inactive)
- GI50 (HCC 2998): > 100 µM (inactive)
- GI50 (SF-295): > 100 µM (inactive)
- GI50 (OVCAR-8): > 100 µM (inactive)
- GI50 (NCI/ADR-RES): > 100 µM (inactive)
- GI50 (NCI-H23): > 100 µM (inactive)
- GI50 (A498): > 100 µM (inactive)
- GI50 (COLO 205): > 100 µM (inactive)
- GI50 (ACHN): > 100 µM (inactive)
- GI50 (SN12C): > 100 µM (inactive)
- GI50 (NCI-H460): > 100 µM (inactive)
- GI50 (HOP-92): > 100 µM (inactive)
- GI50 (UO-31): > 100 µM (inactive)
- GI50 (IGROV-1): > 100 µM (inactive)
- GI50 (EKVX): > 100 µM (inactive)
- GI50 (Malme-3M): 6.35 µM (inactive)
- GI50 (BT-549): > 100 µM (inactive)
- GI50 (LOX IMVI): > 100 µM (inactive)
- GI50 (SF-268): > 100 µM (inactive)
- GI50 (NCI-H522): > 100 µM (inactive)
- GI50 (CAKI-1): > 100 µM (inactive)
- GI50 (MDA-N): 14.5 µM (inactive)
- GI50 (MDA-MB-435): 7.21 µM (inactive)
- GI50 (OVCAR-3): > 100 µM (inactive)
- GI50 (SK-MEL-28): > 100 µM (inactive)
- GI50 (HOP-62): 49.2 µM (inactive)
- GI50 (MDA-MB-231): > 100 µM (inactive)
- GI50 (HCT-15): > 100 µM
- GI50 (SK-MEL-5): 21.5 µM (inactive)
- GI50 (MCF7): > 100 µM (inactive)
- GI50 (SR): > 100 µM (inactive)
- GI50 (SW-620): > 100 µM (inactive)
- GI50 (U-251): > 100 µM (inactive)
- GI50 (MOLT-4): > 100 µM (inactive)

Structure (SMILES): COC(=O)c1c(O)ccc2c1c1c(n2Cc2ccccc2OC)C(=O)c2ccccc2C1=O
- GI50 (UACC-257): 22.9 µM (inactive)
- GI50 (Hs-578T): 18 µM (inactive)
- GI50 (786-0): 11.4 µM (inactive)
- GI50 (T47D): 2.36 µM (inactive)
- GI50 (OVCAR-5): 21.1 µM (inactive)
- GI50 (PC-3): 10.4 µM (inactive)
- GI50 (SF-539): 19.3 µM (inactive)
- GI50 (SK-OV-3): 16.3 µM (inactive)
- GI50 (NCI-H226): 15.3 µM (inactive)
- GI50 (OVCAR-4): 11.7 µM (inactive)
- GI50 (TK-10): 23.2 µM (inactive)
- GI50 (M14): 8.45 µM (inactive)
- GI50 (A549): 5.64 µM (inactive)
- GI50 (SNB-19): 27.2 µM (inactive)
- GI50 (KM12): 9.75 µM (inactive)
- GI50 (DU-145): 13.3 µM (inactive)
- GI50 (HL-60): 2.04 µM (inactive)
- GI50 (HT-29): 8.18 µM (inactive)
- GI50 (HCT-116): 5.46 µM (inactive)
- GI50 (CCRF-CEM): 3.13 µM (inactive)
- GI50 (K562): 1.67 µM (inactive)
- GI50 (HCC 2998): 6.27 µM (inactive)
- GI50 (SF-295): 18.1 µM (inactive)
- GI50 (OVCAR-8): 4.42 µM (inactive)
- GI50 (NCI/ADR-RES): 6.95 µM (inactive)
- GI50 (NCI-H23): 14.1 µM (inactive)
- GI50 (A498): 40 µM (inactive)
- GI50 (COLO 205): 1.83 µM (inactive)
- GI50 (ACHN): 7.53 µM (inactive)
- GI50 (SN12C): 10 µM (inactive)
- GI50 (NCI-H460): 3.78 µM (inactive)
- GI50 (HOP-92): 3.78 µM (inactive)
- GI50 (UO-31): 5.42 µM (inactive)
- GI50 (IGROV-1): 12.6 µM (inactive)
- GI50 (EKVX): 24.5 µM (inactive)
- GI50 (Malme-3M): 21 µM (inactive)
- GI50 (BT-549): 13.3 µM (inactive)
- GI50 (LOX IMVI): 10.6 µM (inactive)
- GI50 (SF-268): 11.6 µM (inactive)
- GI50 (RPMI-8226): 1.86 µM (inactive)
- GI50 (NCI-H522): 11 µM (inactive)
- GI50 (CAKI-1): 15.8 µM (inactive)
- GI50 (MDA-N): 13.3 µM (inactive)
- GI50 (SK-MEL-2): 13.9 µM (inactive)
- GI50 (RXF 393): 13.1 µM (inactive)
- GI50 (MDA-MB-435): 10.3 µM (inactive)
- GI50 (OVCAR-3): 10 µM (inactive)
- GI50 (SK-MEL-28): 15.8 µM (inactive)
- GI50 (HOP-62): 13.6 µM (inactive)
- GI50 (MDA-MB-231): 13.5 µM (inactive)
- GI50 (HCT-15): 5.16 µM
- GI50 (SK-MEL-5): 13.1 µM (inactive)
- GI50 (MCF7): 6.34 µM (inactive)
- GI50 (SR): 0.0483 µM (active)
- GI50 (SW-620): 14.2 µM (inactive)
- GI50 (U-251): 11 µM (inactive)
- GI50 (MOLT-4): 0.0393 µM (active)
